# Measured values published in patent US4071680A, “5'-Deoxy-5-fluoropyrimidine nucleosides” (Hoffmann-La Roche Inc., priority 1976, dated 1978).
# Like-named read-outs stand apart in the source and are kept apart here.
# Assays:
# [1] = tested on: L1210 leukemia cell cultures; conditions: Falco and Fox, J. Med. Chem. 11, 148 (1968); cited from earlier work
# Burkitt's cell cultures = conditions: Falco and Fox, J. Med. Chem. 11, 148 (1968); cited from earlier work
# Sarcoma 180 Tumor = assay type: in vivo, albino mice
# Procedure: (§1) All compounds were dissolved in water for administration to animals.
# (§2) Small pieces of tumor (20-30mg) were implanted subcutaneously by trocar into the right inguinal region of 18-20 g albino mice. The fragments were obtained from donors bearing firm subcutaneous tumors implanted 7-10 days previously. Treatment was begun on the day of implantation and continued once daily for a total of 8 treatments. The animals were sacrificed 8 days after implantation and the tumors excised and weighed. The ratio of the average weight of the tumors from the untreated control group (C) divided by the average weight of the tumors from the treated group (T) was calculated. The percent inhibition of tumor growth was calculated from the formula:
# (§3) % Inhibition = 100 (C-T)/C . The compound was considered to be active at a particular dose if % inhibition ≥ 50%.
# (§4) Results obtained from experiments, utilizing compounds of the present invention and representative prior art compounds are summarized below in Table 1.
# Effect of Pyrimidine Nucleosides Against Sarcoma 180 Tumor in Mice
# (active doses are those which produce ≥50% tumor inhibition)
# Yoshida sarcoma = conditions: Japanese Pat. No. 51-086481; cited from earlier work
# Ehrlich Carcinoma = assay type: in vivo, albino mice
# Procedure: as §1, §2, §3
# The solid form of this tumor was produced by subcutaneous implantation of 0.5 ml of a 1-10 saline - diluted ascitic tumor cell suspensions derived from 18-20 g albino donor mice implanted 7-10 days previously. Treatment and evaluation procedures were identical to those used for Sarcoma 180.
# as §4
# Effect of pyrimidine Nucleosides Against Ehrlich Carcinoma in Mice
SMILES,"Percent Inhibition of tumor growth (Sarcoma 180 Tumor; 100 mg/kg × 8, ip)","Percent Inhibition of tumor growth (Sarcoma 180 Tumor; 200 mg/kg × 8, ip)","Percent Inhibition of tumor growth (Sarcoma 180 Tumor; 200 mg/kg × 8, po)","Percent Inhibition of tumor growth (Sarcoma 180 Tumor; 400 mg/kg × 8, ip)","Percent Inhibition of tumor growth (Sarcoma 180 Tumor; 6.25 mg/kg × 8, po)","Percent Inhibition of tumor growth (Sarcoma 180 Tumor; 12.5 mg/kg × 8, ip)","Percent Inhibition of tumor growth (Sarcoma 180 Tumor; 12.5 mg/kg × 8, po)","Percent Inhibition of tumor growth (Sarcoma 180 Tumor; 25 mg/kg × 8, ip)","Percent Inhibition of tumor growth (Sarcoma 180 Tumor; 25 mg/kg × 8, po)","Percent Inhibition of tumor growth (Sarcoma 180 Tumor; 50 mg/kg × 8, ip)","Percent Inhibition of tumor growth (Sarcoma 180 Tumor; 50 mg/kg × 8, po)","Percent Inhibition of tumor growth (Sarcoma 180 Tumor; 100 mg/kg × 8, po)","Percent Inhibition of tumor growth (Sarcoma 180 Tumor; 400 mg/kg × 8, po)","Percent Inhibition of tumor growth (Ehrlich Carcinoma; 25 mg/kg × 8, ip)","Percent Inhibition of tumor growth (Ehrlich Carcinoma; 25 mg/kg × 8, po)","Percent Inhibition of tumor growth (Ehrlich Carcinoma; 50 mg/kg × 8, ip)","Percent Inhibition of tumor growth (Ehrlich Carcinoma; 50 mg/kg × 8, po)","Percent Inhibition of tumor growth (Ehrlich Carcinoma; 100 mg/kg × 8, ip)","Percent Inhibition of tumor growth (Ehrlich Carcinoma; 100 mg/kg × 8, po)","Percent Inhibition of tumor growth (Ehrlich Carcinoma; 200 mg/kg × 8, ip)",other results
C[C@H]1O[C@@H](n2ccc(N)nc2=O)[C@@H](O)[C@@H]1O [1-(5'-deoxy-β-D-arabinofuranosyl) cytosine],–,–,–,–,–,–,–,–,–,–,–,–,–,–,–,–,–,–,–,–,activity against L1210 leukemia cell cultures [1]: inactive; activity against Burkitt's cell cultures (Burkitt's cell cultures): inactive
"C[C@H]1O[C@@H](n2cc(F)c(=O)[nH]c2=O)C[C@@H]1O [2',5'-Dideoxy-5-Fluorouridine, reference compound]",37%,68%,34%,81%,–,–,–,–,–,–,–,–,–,–,–,–,–,–,–,–,inhibition of growth of Yoshida sarcoma (Yoshida sarcoma): inhibiting the growth of Yoshida sarcoma
C[C@H]1O[C@@H](n2cc(F)c(N)nc2=O)[C@H](O)[C@@H]1O [5'-Deoxy-5-Fluorocytidine],86%,93%,82%,95%,26%,37%,62%,64%,76%,72%,65%,76%,92%,45%,37%,57%,58%,65%,71%,72%,"Percent Inhibition of tumor growth (Ehrlich Carcinoma; 200 mg/kg × 8, po): 80%; Percent Inhibition of tumor growth (Ehrlich Carcinoma; 400 mg/kg × 8, ip): 91%; Percent Inhibition of tumor growth (Ehrlich Carcinoma; 400 mg/kg × 8, po): 95%; Percent Inhibition of tumor growth (Ehrlich Carcinoma; 800 mg/kg × 8, po): 99%"
C[C@H]1O[C@@H](n2cc(F)c(=O)[nH]c2=O)[C@H](O)[C@@H]1O [5'-Deoxy-5-Fluorouridine],88%,88%,90%,–,68%,43%,73%,67%,75%,89%,80%,83%,90%,43%,27%,59%,56%,71%,70%,86%,"Percent Inhibition of tumor growth (Sarcoma 180 Tumor; 1.56 mg/kg × 8, po): 30%; Percent Inhibition of tumor growth (Sarcoma 180 Tumor; 3.12 mg/kg × 8, po): 51%; Percent Inhibition of tumor growth (Ehrlich Carcinoma; 200 mg/kg × 8, po): 90%; Percent Inhibition of tumor growth (Ehrlich Carcinoma; 400 mg/kg × 8, ip): 98%; Percent Inhibition of tumor growth (Ehrlich Carcinoma; 400 mg/kg × 8, po): 98%; Percent Inhibition of tumor growth (Ehrlich Carcinoma; 800 mg/kg × 8, po): 99%"
"C[C@H]1O[C@@H](n2ccc(=O)[nH]c2=O)[C@H](O)[C@@H]1O [5'-Deoxyuridine, reference compound]",41%,9%,–,–,–,–,–,–,–,–,–,–,–,–,–,–,–,–,–,–,–
